Where no end group is shown, it is not given here.
Assays:
A549 cells = type: cell-based; settings: MTT, 20 and 200 µM peptide in PBS, 2 h, 5 × 10^4 cells/well; data not shown
Method: (§1) An MTT cell viability assay was used for evaluating LpqG peptides’ cytotoxic effect; it involved placing 5 × 10^4 cells/well for 2 h with 20 and 200 µM each peptide in PBS, using the afore-mentioned incubation conditions. Triton X-100 was used as cytotoxicity control; 10 µL MTT were then added for 12 h. The resulting formazan crystals were dissolved in SDS and absorbance read at 570 nm.

U937 cells = type: cell-based; settings: MTT, 20 and 200 µM peptide in PBS, 2 h, 5 × 10^4 cells/well; data not shown
Method: as §1

## SGCDSHNSGSLGADPRQVTVY [compound 16661]
A549 cells
  cytotoxicity on A549 cells: 4%
U937 cells
  cytotoxic effect on U937 cells: without having a cytotoxic effect
